In publication PMC9927415, “Tyrosine Kinase Inhibitors Display Potent Activity against Cryptosporidium parvum” (Microbiology Spectrum, 2022):

Key:
Test in all cases: KINOMEscan competitive binding, whole panel
[1] = biological target: T1, panel of 203 kinases (Homo sapiens, UniProt P29322); conditions: 10 µM, n=1; kinase EPHA8; read-out: Percent inhibition EPHA8
T1 construct: purchased DiscoverX (KINOMEscan)
T1 sequence (P29322 28-1005): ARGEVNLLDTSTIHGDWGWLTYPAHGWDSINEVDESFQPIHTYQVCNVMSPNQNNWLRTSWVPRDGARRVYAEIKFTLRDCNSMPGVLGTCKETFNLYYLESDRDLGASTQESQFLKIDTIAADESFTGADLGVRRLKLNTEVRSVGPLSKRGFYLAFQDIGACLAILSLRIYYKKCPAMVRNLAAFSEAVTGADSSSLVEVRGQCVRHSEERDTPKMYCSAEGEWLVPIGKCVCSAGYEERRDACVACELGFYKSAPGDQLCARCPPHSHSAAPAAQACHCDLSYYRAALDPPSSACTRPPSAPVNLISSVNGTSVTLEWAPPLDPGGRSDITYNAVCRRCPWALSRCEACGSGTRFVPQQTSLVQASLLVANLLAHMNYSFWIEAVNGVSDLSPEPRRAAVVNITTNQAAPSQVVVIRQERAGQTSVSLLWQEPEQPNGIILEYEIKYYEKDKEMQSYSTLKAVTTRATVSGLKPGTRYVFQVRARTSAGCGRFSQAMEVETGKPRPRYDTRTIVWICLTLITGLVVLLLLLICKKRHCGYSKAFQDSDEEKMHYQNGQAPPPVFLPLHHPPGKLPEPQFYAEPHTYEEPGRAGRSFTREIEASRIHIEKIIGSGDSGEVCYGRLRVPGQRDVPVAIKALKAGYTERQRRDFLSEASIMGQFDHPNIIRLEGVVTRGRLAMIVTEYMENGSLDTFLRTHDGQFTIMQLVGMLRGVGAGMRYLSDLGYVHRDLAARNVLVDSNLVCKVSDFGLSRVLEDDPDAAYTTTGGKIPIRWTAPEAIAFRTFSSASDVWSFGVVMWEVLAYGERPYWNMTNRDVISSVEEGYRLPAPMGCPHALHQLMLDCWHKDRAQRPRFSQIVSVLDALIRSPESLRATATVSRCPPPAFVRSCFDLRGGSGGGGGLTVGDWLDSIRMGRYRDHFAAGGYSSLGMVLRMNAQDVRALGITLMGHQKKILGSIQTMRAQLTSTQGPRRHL
How it was run: (§1)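 First, kinases were produced as T7 bacteriophage fusion proteins. Then compounds were added to compete them off probe ligands immobilized on a solid support at the ATP site. Finally, bound kinase was measured and converted to percentage inhibition.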

[2] = biological target: T2, panel of 203 kinases (Homo sapiens, UniProt P31751); conditions: 10 µM, n=1; kinase AKT2; read-out: Percent inhibition AKT2
T2 construct: purchased DiscoverX (KINOMEscan)
T2 sequence (P31751 whole entry): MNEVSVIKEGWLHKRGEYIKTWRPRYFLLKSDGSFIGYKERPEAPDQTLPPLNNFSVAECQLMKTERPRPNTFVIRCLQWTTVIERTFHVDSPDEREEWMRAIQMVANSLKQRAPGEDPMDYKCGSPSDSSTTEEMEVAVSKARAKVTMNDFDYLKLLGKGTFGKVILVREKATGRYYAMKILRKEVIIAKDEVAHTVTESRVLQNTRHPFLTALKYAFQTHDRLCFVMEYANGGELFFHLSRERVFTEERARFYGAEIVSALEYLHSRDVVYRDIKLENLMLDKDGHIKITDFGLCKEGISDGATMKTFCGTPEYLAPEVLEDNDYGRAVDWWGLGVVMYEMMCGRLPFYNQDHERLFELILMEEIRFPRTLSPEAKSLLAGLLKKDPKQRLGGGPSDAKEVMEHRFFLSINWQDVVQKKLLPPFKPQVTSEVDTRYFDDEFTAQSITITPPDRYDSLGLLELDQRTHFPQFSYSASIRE
How it was run: as §1

[3] = biological target: T3, panel of 203 kinases (Homo sapiens, UniProt P54646); conditions: 10 µM, n=1; kinase AMPK-alpha2; read-out: Percent inhibition AMPK-alpha2
T3 construct: purchased DiscoverX (KINOMEscan)
T3 sequence (P54646 whole entry): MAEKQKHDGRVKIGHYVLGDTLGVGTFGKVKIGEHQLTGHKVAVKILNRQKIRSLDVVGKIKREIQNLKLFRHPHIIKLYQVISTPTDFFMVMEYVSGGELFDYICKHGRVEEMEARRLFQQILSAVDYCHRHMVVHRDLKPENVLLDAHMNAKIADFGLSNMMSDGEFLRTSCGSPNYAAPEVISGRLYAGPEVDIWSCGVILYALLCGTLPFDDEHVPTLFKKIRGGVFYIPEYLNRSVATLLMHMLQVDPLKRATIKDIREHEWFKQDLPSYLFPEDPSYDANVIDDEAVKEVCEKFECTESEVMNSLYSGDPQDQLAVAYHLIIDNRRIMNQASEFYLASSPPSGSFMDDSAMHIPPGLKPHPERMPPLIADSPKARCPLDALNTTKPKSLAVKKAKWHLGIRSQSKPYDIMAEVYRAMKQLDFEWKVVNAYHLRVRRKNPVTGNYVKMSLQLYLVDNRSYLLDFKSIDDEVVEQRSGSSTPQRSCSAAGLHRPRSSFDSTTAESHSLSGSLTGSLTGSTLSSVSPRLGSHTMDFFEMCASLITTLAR
How it was run: as §1

[4] = biological target: T4, panel of 203 kinases (Homo sapiens, UniProt P54762); conditions: 10 µM, n=1; kinase EPHB1; read-out: Percent inhibition EPHB1
T4 construct: purchased DiscoverX (KINOMEscan)
T4 sequence (P54762 18-984): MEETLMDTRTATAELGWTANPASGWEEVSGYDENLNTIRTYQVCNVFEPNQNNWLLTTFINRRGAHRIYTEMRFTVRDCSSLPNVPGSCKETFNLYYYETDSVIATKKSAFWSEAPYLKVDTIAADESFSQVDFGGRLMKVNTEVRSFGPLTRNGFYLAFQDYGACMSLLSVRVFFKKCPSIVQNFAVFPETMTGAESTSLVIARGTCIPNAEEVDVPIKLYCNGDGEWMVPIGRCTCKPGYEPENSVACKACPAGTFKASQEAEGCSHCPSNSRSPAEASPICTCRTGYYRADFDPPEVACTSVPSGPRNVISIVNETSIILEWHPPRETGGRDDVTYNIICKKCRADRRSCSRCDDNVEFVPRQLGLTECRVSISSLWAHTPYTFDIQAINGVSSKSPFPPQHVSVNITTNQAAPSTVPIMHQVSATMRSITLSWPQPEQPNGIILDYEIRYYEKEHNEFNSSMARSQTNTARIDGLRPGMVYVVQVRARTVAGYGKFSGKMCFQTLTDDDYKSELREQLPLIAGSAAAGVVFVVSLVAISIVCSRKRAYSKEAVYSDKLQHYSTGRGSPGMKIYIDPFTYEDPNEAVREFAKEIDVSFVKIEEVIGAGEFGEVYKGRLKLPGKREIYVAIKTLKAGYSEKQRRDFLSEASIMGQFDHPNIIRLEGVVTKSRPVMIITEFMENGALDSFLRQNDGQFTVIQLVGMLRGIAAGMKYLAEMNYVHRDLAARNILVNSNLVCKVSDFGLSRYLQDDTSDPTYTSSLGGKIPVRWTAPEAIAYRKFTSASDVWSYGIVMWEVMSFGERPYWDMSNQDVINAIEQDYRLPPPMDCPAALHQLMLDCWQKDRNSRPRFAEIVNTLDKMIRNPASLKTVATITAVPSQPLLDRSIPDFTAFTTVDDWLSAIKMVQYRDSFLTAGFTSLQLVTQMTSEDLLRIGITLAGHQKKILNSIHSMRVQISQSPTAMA
How it was run: as §1

[5] = biological target: T5, panel of 203 kinases (Homo sapiens, UniProt Q96D53); conditions: 10 µM, n=1; kinase ADCK4; read-out: Percent inhibition ADCK4
T5 construct: purchased DiscoverX (KINOMEscan)
T5 sequence (Q96D53 1-544): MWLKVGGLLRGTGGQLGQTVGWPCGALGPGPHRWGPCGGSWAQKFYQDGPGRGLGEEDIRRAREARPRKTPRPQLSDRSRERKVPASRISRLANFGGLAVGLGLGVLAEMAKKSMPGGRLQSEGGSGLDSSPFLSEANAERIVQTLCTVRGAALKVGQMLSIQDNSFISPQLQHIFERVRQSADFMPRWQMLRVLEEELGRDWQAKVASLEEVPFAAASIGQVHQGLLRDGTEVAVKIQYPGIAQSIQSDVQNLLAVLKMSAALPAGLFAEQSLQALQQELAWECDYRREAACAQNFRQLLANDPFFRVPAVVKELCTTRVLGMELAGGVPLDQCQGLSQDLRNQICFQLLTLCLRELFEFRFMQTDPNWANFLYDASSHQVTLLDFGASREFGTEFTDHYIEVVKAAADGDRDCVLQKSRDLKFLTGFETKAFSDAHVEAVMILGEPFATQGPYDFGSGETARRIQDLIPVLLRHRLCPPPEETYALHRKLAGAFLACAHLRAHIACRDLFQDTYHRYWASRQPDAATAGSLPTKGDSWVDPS
How it was run: as §1

[6] = biological target: T6, panel of 203 kinases (Homo sapiens, UniProt Q96NX5); conditions: 10 µM, n=1; kinase CAMK1G; read-out: Percent inhibition CAMK1G
T6 construct: purchased DiscoverX (KINOMEscan)
T6 sequence (Q96NX5 whole entry): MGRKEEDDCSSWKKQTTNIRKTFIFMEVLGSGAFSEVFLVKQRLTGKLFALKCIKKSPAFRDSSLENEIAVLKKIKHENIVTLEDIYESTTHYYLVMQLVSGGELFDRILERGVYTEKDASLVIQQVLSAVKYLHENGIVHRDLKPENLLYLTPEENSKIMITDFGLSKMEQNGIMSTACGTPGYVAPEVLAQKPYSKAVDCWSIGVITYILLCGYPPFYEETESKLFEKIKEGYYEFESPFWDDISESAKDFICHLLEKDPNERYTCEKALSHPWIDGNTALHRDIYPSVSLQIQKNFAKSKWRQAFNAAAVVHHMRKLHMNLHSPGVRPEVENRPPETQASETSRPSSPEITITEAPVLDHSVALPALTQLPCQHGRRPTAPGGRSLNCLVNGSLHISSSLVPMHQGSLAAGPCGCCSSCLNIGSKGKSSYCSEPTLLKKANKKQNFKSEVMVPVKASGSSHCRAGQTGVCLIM
How it was run: as §1

| Compound | inhibition at 10 µM [1] [%] | inhibition at 10 µM [2] [%] | inhibition at 10 µM [3] [%] | inhibition at 10 µM [4] [%] | inhibition at 10 µM [5] [%] | inhibition at 10 µM [6] [%] |
| --- | --- | --- | --- | --- | --- | --- |
| C[C@@H](Oc1cc(-c2cnc3ccccn23)sc1C(N)=O)c1ccccc1Cl [Compound 8] | 0 | 0 | 0 | 0 | 0 | 0 |
| Cc1ccc(O)cc1N(C)c1ccnc(Nc2cccc(S(N)(=O)=O)c2)n1 [Compound 4] | 100 | 0 | 0 | 100 | 100 | 0 |
| COc1cc(Nc2nccc(-c3sc(N)nc3-c3cccc(NC(=O)c4c(F)cccc4F)c3)n2)cc(OC)c1OC [Compound 7] | 100 | 0 | 100 | 100 | 100 | 69.4 |
| CN1CCN(c2ccc(Nc3nccc(-c4cnn5ncccc45)n3)cc2C#N)CC1 [Compound 1] | 0 | 0 | 81.8 | 99.3 | 98.6 | 90.5 |
| Fc1cccc(COc2ccc(Nc3ncnc4c3CN(CCN3CCOCC3)CC4)cc2Cl)c1 [Compound 6] | 0 | 0 | 0 | 0 | 0 | 0 |
| Cc1ccc(O)cc1Nc1ccnc(Nc2cccc(C(N)=O)c2)n1 [Compound 3] | 100 | 0 | 0 | 100 | 100 | 0 |
| Clc1ccc(Nc2ncc(-c3ccccc3)s2)cc1 [Compound 10] | 0 | 0 | 0 | 0 | 0 | 0 |
| COc1ccc(Nc2nccc(-c3cnn4ncccc34)n2)cc1 [Compound 2] | 0 | 0 | 0 | 99.8 | 94.5 | 71.5 |
| c1ccc(COc2cccc(-c3ccnc4[nH]ccc34)c2)cc1 [Compound 9] | 0 | 0 | 0 | 0 | 0 | 0 |
| Nc1ncc2c(-c3ccncc3)c[nH]c2n1 [Compound 11] | 0 | 0 | 0 | 81.9 | 0 | 0 |
